Data published in US20220274967A1, “BCAT MODULATION” (Icagen, LLC, priority 2019, published 2022).

Legend:
[1] = test system: propionyl carnitine; experiment: Propionyl carnitine in conditioned media of propionic acidemia fibroblasts; assay type: cell-based, human; details: 24 hours, increasing concentrations, FIG. 1
Experimental: could inhibit levels of the downstream metabolite propionyl carnitine, which is found to be elevated in patients with propionic acidemia, by analyzing propionyl carnitine levels in conditioned media in human fibroblasts from a patient with propionic acidemia treated with a dose response of the compound of the disclosure.
(§1) Primary human fibroblasts from a patient with propionic acidemia (Coriell #GM00371) were plated in complete media (EMEM, 15% FBS) in a 96-well plate at 10,000 cells/well and incubated overnight at 37° C. at 5% CO2. Compounds were serially diluted initially in DMSO then into serum-free EMEM media. The cells were then washed with D-PBS before addition of the media containing the diluted compound, and were then incubated at 37° C. at 5% CO2 overnight.
The conditioned media was removed from cells after 24 hours of compound treatment and was diluted 2× with D3-propionyl carnitine internal standard diluted in MS-grade methanol. Plates were sealed and samples were frozen at −80DGC for more than 30 minutes, followed by thawing at room temperature and centrifugation for 10 minutes at 4000 rpm. The samples were then analyzed for propionyl carnitine by LC-LC/MS using TSQ Vantage using a Kinetex 2.6 μm Biphenyl 2.1×50 mm column with Mobile Phase A of 95% (0.1% Formic acid in Water)+5% Water and Mobile Phase B of 95% McOH+5% (0.1% Formic acid in Water).

[2] = test system: Primary human fibroblasts from a patient with propionic acidemia (Coriell #GM00371); experiment: Cell viability (cell Titer-Glo) of propionic acidemia fibroblasts; assay type: cell-based; details: FIG. 1
Experimental: as §1
Cell viability was also determined with cell Titer-Glo reagent (Promega) by addition of equal volumes of D-PBS and Cell Titer-Glo reagent to cell wells and following manufacturer's recommendations for detection of luminescence signal.

[3] = test system: branched chain amino acids (BCAA) in plasma; experiment: Repetitive treatment with BCAT2 inhibitor compound: plasma amino acids; assay type: in vivo; details: mice
Experimental: Male, C57Black/6J mice (6-7 weeks, Jackson Laboratories, Bar Harbor, Me.) were used in all in vivo experiments. Animals were maintained on a 12 hour light/dark reverse cycle in a temperature- and humidity-controlled room with access to food and water ad libitum. Before the experiment, animals underwent a 7-day acclimation period.
All biological samples were stored in −80° C. until analysis. […] In particular, 20 μL of mouse plasma were precipitated with 180 μL acetonitrile containing 5 μg/ml D8-Valine. Samples were vortexed vigorously and centrifuged to remove precipitated protein. 2 μL of supernatant was injected on a Phenomenex Gemini C18 column (4.6 mm×150 mm, 5 μm particle size) for separation under a linear gradient from 2% ACN to 50% ACN in 10 minutes followed by a 7 minute equilibration with 2% ACN.
Animals were grouped based on pair matched body weight and received either vehicle (0.5% HPMC K100+0.1 Tween 80, pH=10.0) or a daily dose of compound (200 mg/kg, PO) for 9 days. From day 1 to day 5, all animals were provided with normal diet. […] On day 9, blood, bladder urine as well as tissue samples (liver, brain, heart, muscle and kidney) were harvested 4 hours after the last dose. Three mice in each treatment/diet group were retained for a 3-day recovery phase observation. On day 12, blood, bladder urine as well as tissue samples (liver, brain, heart, muscle and kidney) were harvested. During the entire study course (day 1 to day 12), mice were able to access food and water freely. Body weights were measured daily and any abnormal behavior for toxicity signs was recorded.

[4] = Repetitive treatment: body weight and toxicity signs; assay type: in vivo; details: mice, 200 mg/kg PO once a day for 9 days and 3-day recovery
Experimental: […]. Animals were maintained on a 12 hour light/dark reverse cycle in a temperature- and humidity-controlled room with access to food and water ad libitum. Before the experiment, animals underwent a 7-day acclimation period. All procedures involving mice were approved by the Institutional Animal Care and Use Committee of the University of Arizona and were conducted in accordance with Principles of Laboratory Animal Care (National Institutes of Health Publication 85-23, revised in 1985).
Animals were grouped based on pair matched body weight and received either vehicle (0.5% HPMC K100+0.1 Tween 80, pH=10.0) or a daily dose of compound (200 mg/kg, PO) for 9 days. From day 1 to day 5, all animals were provided with normal diet. On day 6, the diet was switched to a precursor enriched chow (700% isoleucine, valine and threonine enriched, TD. 140829; Envigo) for half of the animals; the other half were still fed with normal diet. On day 9, blood, bladder urine as well as tissue samples (liver, brain, heart, muscle and kidney) were harvested 4 hours after the last dose. Three mice in each treatment/diet group were retained for a 3-day recovery phase observation. On day 12, blood, bladder urine as well as tissue samples (liver, brain, heart, muscle and kidney) were harvested. […] Body weights were measured daily and any abnormal behavior for toxicity signs was recorded.

[5] = 200 mg/kg PO for 9 days, normal diet, FIG. 4A
[6] = 200 mg/kg PO, Day 9, precursor-enriched diet, FIG. 4B

In the case of CNC(=O)c1ccc2c(c1)nc(-c1ccccn1)n2C1CCCC(NC(=O)c2ccc(Br)s2)C1 (stereo not drawn) [drawing 84], the propionyl carnitine levels [1] is reported as “inhibited” and the “impact on cell viability” value [2] is reported as “little impact”.

In the case of CNC(=O)c1ccc2c(c1)nc(-c1ccccn1)n2C1CCCC(NC(=O)c2ccc(Br)s2)C1 (stereo not drawn) [drawing 85], the “plasma level of Leu” value [3, 5] is reported as “significantly increased”, the “plasma level of Ser” value [3, 5] is reported as “not” and the “plasma level of Val” value [3, 5] is reported as “significantly increased”. The “levels of BCAAs in plasma, compound vs vehicle” value [3, 6] was “no significant changes”, the “plasma level of leucine” value [3, 6] was “slight but significant decrease” and the “abnormal behaviors reflecting toxicities” value [4] was “no obvious abnormal behaviors reflecting toxicities”. For the same compound, the body weight ([4]; FIG. 3A) was “no significant loss”.
